Laboratory results as given in ChEMBL document CHEMBL3351801, “Phragmalin-type limonoids with NF-κB inhibition from Chukrasia tabularis var. velutina” (Bioorg Med Chem Lett, 2014).

Key:
Type in all cases: cell-based
[1] = target: T1, Nuclear factor NF-kappa-B complex (Homo sapiens) (UniProt Q00653+P19838+Q04206); experiment: Inhibition of LPS-induced NF-kappaB (unknown origin) expressed in HEK293 cells at 1 ug/ml after 4 hrs by luciferase reporter gene assay relative to LPS-treated control
[2] = target: T1, Nuclear factor NF-kappa-B complex (Homo sapiens); experiment: Inhibition of LPS-induced NF-kappaB (unknown origin) expressed in HEK293 cells at 10 ug/ml after 4 hrs by luciferase reporter gene assay relative to LPS-treated control
[3] = target: T1, Nuclear factor NF-kappa-B complex (Homo sapiens); experiment: Inhibition of LPS-induced NF-kappaB (unknown origin) expressed in HEK293 cells at 100 ug/ml after 4 hrs by luciferase reporter gene assay relative to LPS-treated control

T1 sequence (P19838 whole entry, looked up): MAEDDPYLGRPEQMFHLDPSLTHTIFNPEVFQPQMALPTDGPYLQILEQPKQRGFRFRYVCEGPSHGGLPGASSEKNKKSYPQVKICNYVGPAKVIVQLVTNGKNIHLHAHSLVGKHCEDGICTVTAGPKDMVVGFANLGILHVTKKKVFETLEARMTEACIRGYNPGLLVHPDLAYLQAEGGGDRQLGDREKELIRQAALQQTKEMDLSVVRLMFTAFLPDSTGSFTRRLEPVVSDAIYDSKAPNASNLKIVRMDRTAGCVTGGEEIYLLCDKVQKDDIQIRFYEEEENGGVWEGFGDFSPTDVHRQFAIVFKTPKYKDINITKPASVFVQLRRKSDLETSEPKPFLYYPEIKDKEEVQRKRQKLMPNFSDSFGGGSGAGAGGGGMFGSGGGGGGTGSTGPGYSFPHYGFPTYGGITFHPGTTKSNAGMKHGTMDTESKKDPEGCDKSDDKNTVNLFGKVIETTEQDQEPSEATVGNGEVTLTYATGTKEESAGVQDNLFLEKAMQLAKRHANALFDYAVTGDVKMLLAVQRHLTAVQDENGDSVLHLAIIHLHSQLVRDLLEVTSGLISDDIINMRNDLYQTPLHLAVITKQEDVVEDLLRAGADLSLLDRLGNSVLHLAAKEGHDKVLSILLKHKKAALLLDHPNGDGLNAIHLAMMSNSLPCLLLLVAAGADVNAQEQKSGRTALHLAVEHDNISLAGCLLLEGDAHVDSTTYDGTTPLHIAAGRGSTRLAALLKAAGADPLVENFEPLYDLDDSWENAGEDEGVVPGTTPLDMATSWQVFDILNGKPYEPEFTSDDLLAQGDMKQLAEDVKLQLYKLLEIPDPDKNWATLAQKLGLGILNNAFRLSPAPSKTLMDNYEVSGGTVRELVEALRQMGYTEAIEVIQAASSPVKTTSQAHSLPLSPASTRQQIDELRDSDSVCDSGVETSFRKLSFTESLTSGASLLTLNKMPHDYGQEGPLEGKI
T1 sequence (Q00653 whole entry, looked up): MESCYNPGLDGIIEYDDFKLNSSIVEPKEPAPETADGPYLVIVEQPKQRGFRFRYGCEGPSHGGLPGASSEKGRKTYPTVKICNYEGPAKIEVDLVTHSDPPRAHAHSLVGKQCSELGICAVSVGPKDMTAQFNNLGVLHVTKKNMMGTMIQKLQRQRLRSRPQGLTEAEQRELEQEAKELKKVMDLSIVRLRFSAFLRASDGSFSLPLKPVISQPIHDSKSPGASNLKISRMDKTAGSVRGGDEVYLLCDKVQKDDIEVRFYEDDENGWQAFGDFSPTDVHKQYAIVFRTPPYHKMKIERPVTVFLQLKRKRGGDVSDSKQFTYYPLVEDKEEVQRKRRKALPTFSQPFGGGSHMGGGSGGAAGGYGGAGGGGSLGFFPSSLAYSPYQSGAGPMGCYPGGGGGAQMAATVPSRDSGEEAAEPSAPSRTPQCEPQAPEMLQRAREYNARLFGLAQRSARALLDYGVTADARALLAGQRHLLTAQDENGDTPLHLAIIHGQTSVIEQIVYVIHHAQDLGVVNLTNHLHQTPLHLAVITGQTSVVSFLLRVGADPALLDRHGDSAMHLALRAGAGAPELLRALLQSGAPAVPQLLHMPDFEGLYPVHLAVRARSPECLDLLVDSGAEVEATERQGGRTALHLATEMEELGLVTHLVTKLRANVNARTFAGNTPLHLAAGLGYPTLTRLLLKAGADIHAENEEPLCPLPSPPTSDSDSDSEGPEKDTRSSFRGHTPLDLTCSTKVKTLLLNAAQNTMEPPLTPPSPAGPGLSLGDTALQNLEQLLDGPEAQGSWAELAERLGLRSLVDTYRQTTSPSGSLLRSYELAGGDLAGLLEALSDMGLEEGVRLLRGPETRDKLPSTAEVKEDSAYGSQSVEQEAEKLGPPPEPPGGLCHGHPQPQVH
T1 sequence (Q04206 whole entry, looked up): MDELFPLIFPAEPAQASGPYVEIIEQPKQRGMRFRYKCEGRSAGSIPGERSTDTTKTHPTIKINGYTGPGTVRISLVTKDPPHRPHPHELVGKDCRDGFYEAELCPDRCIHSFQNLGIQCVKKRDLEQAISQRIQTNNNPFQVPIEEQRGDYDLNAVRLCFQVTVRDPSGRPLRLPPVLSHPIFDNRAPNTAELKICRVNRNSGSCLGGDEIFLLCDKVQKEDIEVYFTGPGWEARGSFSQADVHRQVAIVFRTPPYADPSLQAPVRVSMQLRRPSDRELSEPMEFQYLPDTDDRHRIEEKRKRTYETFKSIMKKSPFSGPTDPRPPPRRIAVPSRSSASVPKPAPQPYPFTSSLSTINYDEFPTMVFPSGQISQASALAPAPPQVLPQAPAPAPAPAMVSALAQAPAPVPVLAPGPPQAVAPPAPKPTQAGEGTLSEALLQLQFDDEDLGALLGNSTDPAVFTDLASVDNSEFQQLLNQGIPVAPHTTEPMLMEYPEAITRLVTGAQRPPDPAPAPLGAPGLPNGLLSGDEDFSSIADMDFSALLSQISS

| Compound | Ratio [1] | Ratio [2] | Ratio [3] |
| --- | --- | --- | --- |
| COC(=O)[C@H](OC(C)=O)[C@H]1[C@]2(C)C[C@]3(O)[C@@](O)([C@H]4OC(=O)[C@@H]5O[C@@H](c6ccoc6)[C@@]67C[C@@]56[C@]4(O)[C@](O)([C@H](OC(=O)C(C)C)[C@@H]7OC(C)=O)[C@]13C)[C@H]2OC(C)=O | 0.14 | 0.27 | 0.3 |
| C[C@]12CCC(=O)C=C1CC[C@@H]1[C@@H]2[C@@H](O)C[C@@]2(C)[C@H]1CC[C@]2(O)C(=O)CO | 0.29 | 0.37 | 0.6 |
| COC(=O)[C@H](OC(C)=O)[C@H]1[C@]2(C)C[C@]3(O)[C@@](OC(=O)C(C)C)([C@H]4OC5(C)O[C@@]6([C@H](O)[C@H](O)[C@]78C[C@]7([C@@H](OC(C)=O)C(=O)O[C@H]8c7ccoc7)[C@@]46O5)[C@]13C)[C@H]2OC(C)=O | 0.09 | 0.32 | 0.44 |
| CC(=O)O[C@@H]1[C@H](OC(C)=O)[C@@](C)([C@@H](OC(C)=O)c2ccoc2)[C@H]2CC3(C)O[C@@H]4[C@@]5(OC(C)=O)[C@@H](OC(C)=O)[C@@]6(C)C[C@@]5(O)[C@]5(COC(=O)C[C@@H]65)[C@]1(O)[C@@]24O3 | 0.25 | 0.27 | 0.42 |
| CCC12C[C@@H]3[C@](C)([C@@H](OC(C)=O)c4ccoc4)[C@@H](OC(C)=O)[C@@H](OC(C)=O)[C@@]4(O)[C@]3(O1)[C@H](O2)[C@@]1(OC(C)=O)[C@@H](OC(C)=O)[C@@]2(C)C[C@@]1(O)[C@@]4(C)[C@H]2CC(=O)OC | 0.61 | 0.39 | 0.75 |
| COC(=O)C[C@H]1[C@]2(C)C[C@]3(O)[C@@](OC(C)=O)([C@H]4OC5(C)C[C@@H]6[C@](C)([C@@H](OC(C)=O)c7ccoc7)[C@@H](OC(C)=O)[C@@H](OC(C)=O)[C@@](O)([C@@]64O5)[C@]13COC(C)=O)[C@H]2OC(C)=O | 0.23 | 0.34 | 0.8 |
| COC(=O)C[C@H]1[C@]2(C)C[C@]3(O)[C@@](O)([C@@H](OC(=O)C(C)C)[C@]45OC6(C)O[C@H]([C@H](O)[C@]78C[C@@]74[C@@H](OC(C)=O)C(=O)O[C@H]8c4ccoc4)[C@]5(O6)[C@]13C)[C@H]2OC(C)=O | 0.1 | 0.1 | 0.17 |
| COC(=O)C[C@H]1[C@]2(C)C[C@]3(O)[C@@](OC(C)=O)([C@H]4OC5(C)C[C@@H]6[C@](C)([C@@H](OC(C)=O)c7ccoc7)[C@@H](OC(C)=O)[C@@H](OC(C)=O)[C@@](O)([C@@]64O5)[C@]13C)[C@H]2OC(C)=O | 0.21 | 0.33 | 0.32 |
| CCC12C[C@@H]3[C@](C)([C@@H](OC(C)=O)c4ccoc4)[C@@H](OC(C)=O)[C@@H](OC(C)=O)[C@@]4(O)[C@]3(O1)[C@H](O2)[C@@]1(O)[C@@H](OC(C)=O)[C@@]2(C)C[C@@]1(O)[C@@]4(C)[C@H]2CC(=O)OC | 0.12 | 0.08 | 0.17 |
| CCC12C[C@@H]3[C@](C)([C@@H](OC(C)=O)c4ccoc4)[C@@H](OC(C)=O)[C@@H](OC(C)=O)[C@@]4(O)[C@]3(O1)[C@H](O2)[C@@]1(OC(C)=O)[C@@H](OC(C)=O)[C@@]2(C)C[C@@]1(O)[C@@]4(COC(C)=O)[C@H]2CC(=O)OC | 0.36 | 0.38 | 0.53 |
| COC(=O)C[C@H]1[C@]2(C)C[C@@]34OC5(C)O[C@]6([C@@H]7/C(=C(\C)O)C(=O)O[C@@H](c8ccoc8)[C@]7(C)[C@@H](OC(C)=O)[C@@H](O)[C@]6(O5)[C@]13COC(C)=O)[C@H](OC(C)=O)[C@@]4(OC(C)=O)[C@H]2OC(C)=O | 0.25 | 0.33 | 0.62 |
| CCC12C[C@@H]3[C@](C)([C@@H](OC(C)=O)c4ccoc4)[C@@H](O)[C@@H](O)[C@@]4(O)[C@]3(O1)[C@H](O2)[C@@]1(OC(C)=O)[C@@H](OC(C)=O)[C@@]2(C)C[C@@]1(O)[C@]41COC(=O)C[C@@H]21 | 0.33 | 0.48 | 0.59 |
| CC/C(O)=C1/C(=O)O[C@@H]2[C@@]3(O)[C@@H](OC(C)=O)[C@@]4(C)C[C@]35OC3(C)O[C@]26[C@H]1[C@](C)([C@@H](OC(C)=O)c1ccoc1)[C@@H](OC(C)=O)[C@@H](O)[C@]6(O3)[C@]5(COC(C)=O)[C@H]4CC(=O)OC | 0.23 | 0.3 | 0.35 |
| CCC12C[C@@H]3[C@](C)([C@@H](OC(C)=O)c4ccoc4)[C@@H](OC(C)=O)[C@@H](OC(C)=O)[C@@]4(O)[C@]3(O1)[C@H](O2)[C@@]1(OC(C)=O)[C@@H](OC(C)=O)[C@@]2(C)C[C@@]1(O)[C@]41COC(=O)C[C@@H]21 | 0.09 | 0.34 | 0.31 |
| COC(=O)[C@H](O)[C@H]1[C@]2(C)C[C@]3(O)[C@@](O)([C@@H](OC(=O)C(C)C)[C@]45OC6(C)O[C@H]([C@H](OC(C)=O)[C@]78C[C@@]74[C@@H](OC(C)=O)C(=O)O[C@H]8c4ccoc4)[C@]5(O6)[C@]13C)[C@H]2OC(C)=O | 0.22 | 0.15 | 0.34 |
| CC/C(O)=C1/C(=O)O[C@@H]2[C@@]3(O)[C@@H](OC(C)=O)[C@@]4(C)C[C@]35OC3(C)O[C@]26[C@H]1[C@](C)([C@@H](OC(C)=O)c1ccoc1)[C@@H](OC(C)=O)[C@@H](OC(C)=O)[C@]6(O3)[C@]5(COC(C)=O)[C@H]4CC(=O)OC | 0.13 | 0.27 | 0.45 |
| CCC(=O)O[C@@H]1[C@@]2(O)[C@@H](OC(C)=O)[C@@]3(C)C[C@]24OC2(C)O[C@]15[C@@H]1CC(=O)O[C@@H](c6ccoc6)[C@]1(C)[C@@H](OC(C)=O)[C@@H](O)[C@]5(O2)[C@]4(COC(C)=O)[C@H]3CC(=O)OC | 0.18 | 0.26 | 0.32 |
| CCC12C[C@@H]3[C@](C)([C@@H](OC(C)=O)c4ccoc4)[C@@H](O)[C@@H](OC(C)=O)[C@@]4(O)[C@]3(O1)[C@H](O2)[C@@]1(OC(C)=O)[C@@H](O)[C@@]2(C)C[C@@]1(O)[C@@]4(C)[C@H]2[C@@H](O)C(=O)OC | 0.1 | 0.23 | 0.3 |
| COC(=O)[C@H](OC(C)=O)[C@H]1[C@]2(C)C[C@]3(O)[C@@](O)([C@@H](OC(=O)C(C)C)[C@]45OC6(C)O[C@H]([C@H](O)[C@]78C[C@@]74[C@@H](OC(C)=O)C(=O)O[C@H]8c4ccoc4)[C@]5(O6)[C@]13C)[C@H]2OC(C)=O | 0.05 | 0.1 | 0.1 |
| COC(=O)[C@H](OC(C)=O)[C@H]1[C@]2(C)C[C@]3(O)[C@@](O)([C@@H](OC(=O)C(C)C)[C@]45OC6(C)O[C@H]([C@H](OC(C)=O)[C@]78C[C@@]74[C@@H](OC(C)=O)C(=O)O[C@H]8c4ccoc4)[C@]5(O6)[C@]13C)[C@H]2OC(C)=O | 0.37 | 0.55 | 0.62 |
| COC(=O)C[C@H]1[C@]2(C)C[C@]3(O)[C@@](O)([C@H]4OC(C)=C[C@@H]5[C@](C)([C@@H](OC(C)=O)c6ccoc6)[C@@H](OC(C)=O)[C@@H](OC(C)=O)[C@]6(OC(=O)O[C@]546)[C@]13C)[C@H]2O | 0.69 | 0.57 | 0.86 |
| COC(=O)[C@H](OC(C)=O)[C@H]1[C@]2(C)C[C@]3(O)[C@@](OC(=O)C(C)C)([C@H]4OC5(C)O[C@@]6([C@H](O)[C@H](OC(C)=O)[C@]78C[C@]7([C@@H](OC(C)=O)C(=O)O[C@H]8c7ccoc7)[C@@]46O5)[C@]13C)[C@H]2OC(C)=O | 0.13 | 0.05 | 0.24 |
| CCC1=C[C@@H]2[C@](C)([C@@H](OC(C)=O)c3ccoc3)[C@@H](OC(C)=O)[C@@H](OC(C)=O)[C@@]34OC(=O)O[C@@]23[C@H](O1)[C@@]1(O)[C@@H](O)[C@@]2(C)C[C@@]1(O)[C@@]4(C)[C@H]2CC(=O)OC | 0.16 | 0.14 | 0.26 |
| COC(=O)[C@H](O)[C@H]1[C@]2(C)C[C@]3(O)[C@@](O)([C@H]4OC5(C)C[C@@H]6[C@](C)([C@@H](OC(C)=O)c7ccoc7)[C@@H](OC(C)=O)[C@@H](OC(C)=O)[C@@](O)([C@@]64O5)[C@]13C)[C@H]2O | 0.33 | 0.2 | 0.56 |
| CCC12C[C@@H]3[C@](C)([C@@H](OC(C)=O)c4ccoc4)[C@@H](OC(C)=O)[C@@H](OC(C)=O)[C@@]4(O)[C@]3(O1)[C@H](O2)[C@@]1(O)[C@@H](OC(C)=O)[C@@]2(C)C[C@@]1(O)[C@]41COC(=O)C[C@@H]21 | 0.16 | 0.26 | 0.31 |
| CC/C(O)=C1/C(=O)O[C@@H]2[C@@]3(O)[C@@H](OC(C)=O)[C@@]4(C)C[C@]35OC3(C)O[C@]26[C@H]1[C@](C)([C@@H](OC(C)=O)c1ccoc1)[C@@H](OC(=O)C(C)C)[C@@H](OC(=O)C(C)C)[C@]6(O3)[C@@]51COC(=O)C[C@@H]41 | 0.11 | 0.18 | 0.29 |
| CC(=O)O[C@@H]1[C@H](OC(C)=O)[C@@](C)([C@@H](OC(C)=O)c2ccoc2)[C@H]2CC3(C(C)C)O[C@@H]4[C@@]5(OC(C)=O)[C@@H](OC(C)=O)[C@@]6(C)C[C@@]5(O)[C@]5(COC(=O)C[C@@H]65)[C@]1(O)[C@@]24O3 | 0.17 | 0.25 | 0.3 |
| COC(=O)C[C@H]1[C@]2(C)C[C@]3(O)[C@@](O)([C@@H](OC(=O)C(C)C)[C@]45OC6(C)O[C@H]([C@H](OC(C)=O)[C@]78C[C@@]74[C@@H](OC(C)=O)C(=O)O[C@H]8c4ccoc4)[C@]5(O6)[C@]13C)[C@H]2OC(C)=O | 0.12 | 0.32 | 0.35 |
| CC/C(O)=C1/C(=O)O[C@@H]2[C@@]3(OC(C)=O)[C@@H](OC(C)=O)[C@@]4(C)C[C@]35OC3(C)O[C@]26[C@H]1[C@](C)([C@@H](OC(C)=O)c1ccoc1)[C@@H](OC(C)=O)[C@@H](O)[C@]6(O3)[C@]5(COC(C)=O)[C@H]4CC(=O)OC | 0.23 | 0.33 | 0.45 |
